Among the data in patent publication US11020395B2, “Cycloalkyl substituted triazole compounds as agonists of the APJ receptor” (AMGEN INC., priority 2016, dated 2021) are EC50 values, retold here.

Chain of human APJ receptor (P35414 whole entry): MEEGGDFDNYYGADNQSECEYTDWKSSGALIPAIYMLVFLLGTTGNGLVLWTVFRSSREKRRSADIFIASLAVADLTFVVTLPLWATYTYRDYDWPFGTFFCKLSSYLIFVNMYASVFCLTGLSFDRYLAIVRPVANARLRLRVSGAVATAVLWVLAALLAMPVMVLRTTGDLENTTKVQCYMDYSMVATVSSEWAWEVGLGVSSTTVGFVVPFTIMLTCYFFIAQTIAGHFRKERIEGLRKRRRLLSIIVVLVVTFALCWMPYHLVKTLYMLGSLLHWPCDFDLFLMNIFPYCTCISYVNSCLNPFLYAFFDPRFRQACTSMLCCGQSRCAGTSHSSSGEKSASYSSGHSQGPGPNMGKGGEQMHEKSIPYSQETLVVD

In the first experiment the target is human APJ receptor (Homo sapiens (Human), UniProt P35414). The experiment can be described thus: [35S]GTPγS binding assay on membranes from CHO cells stably expressing human APJ receptor. Type of experiment: biochemical. The settings on record: Activity hAPJ SPA EC50 IP, [35S]GTPγS SPA. The essentials:
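Agonist-stimulated [35S]GTPγS binding measured on membranes of a stable human APJ CHO line, 90 min at room temperature, with GDP, MgCl2 and NaCl levels optimized beforehand. Means of independent runs fitted by non-linear regression to give EC50.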
A general note: GTPγS is a poorly hydrolysed GTP analogue; its binding reports G protein activation.
On to `COc1cccc(OC)c1-n1c(NS(=O)(=O)[C@@H](C)[C@H](OC)c2ncc(C)cn2)nnc1C1CC1` [Example 16.0, (1R,2S)—N-(5-Cyclopropyl-4-(2,6-dimethoxyphenyl)-4H-1,2,4-triazol-3-yl)-1-methoxy-1-(5-methyl-2-pyrimidinyl)-2-propanesulfonamide], for which a half-maximal response (EC50) required 22 nM.

Still in this experiment, the particulars now being: [35S]GTPγS SPA, read-out: Activity hAPJ SPA EC50 IP.
Regarding `COc1ncnc(OC)c1-n1c(NS(=O)(=O)[C@@H](C)[C@H](OC)c2ncc(Cl)cn2)nnc1[C@H]1C[C@](C)(F)C1` (single isomer, unassigned) [Example 237.0, (1R,2S)-1-(5-chloropyrimidin-2-yl)-N-(4-(4,6-dimethoxypyrimidin-5-yl)-5-((1s,3S)-3-fluoro-3-methylcyclobutyl)-4H-1,2,4-triazol-3-yl)-1-methoxypropane-2-sulfonamide or (1R,2S)-1-(5-chloropyrimidin-2-yl)-N-(4-(4,6-dimethoxypyrimidin-5-yl)-5-((1r,3S)-3-fluoro-3-methylcyclobutyl)-4H-1,2,4-triazol-3-yl)-1-methoxypropane-2-sulfonamide], the EC50 is 30 nM.
On to `COc1ncnc(OC)c1-n1c(NS(=O)(=O)[C@@H](C)[C@H](C)c2ncc(Cl)cn2)nnc1[C@@H]1CC[C@@H]1C(F)F` (stereo in doubt) [Example 166.0], for which the EC50 was 20 nM.
On to `COc1ncnc(OC)c1-n1c(NS(=O)(=O)[C@@H](C)[C@H](C)c2ncc(C)cn2)nnc1C1CC1` [Example 3.0, (2S,3R)-N-(5-cyclopropyl-4-(4,6-dimethoxy-5-pyrimidinyl)-4H-1,2,4-triazol-3-yl)-3-(5-methyl-2-pyrimidinyl)-2-butanesulfonamide], for which the EC50 was determined as 56 nM.
As for `COc1ncnc(OC)c1-n1c(NS(=O)(=O)[C@@H](C)[C@H](C)c2ncc(C)cn2)nnc1C1CCC1` [Example 4.0, (2S,3R)-N-(5-cyclobutyl-4-(4,6-dimethoxy-5-pyrimidinyl)-4H-1,2,4-triazol-3-yl)-3-(5-methyl-2-pyrimidinyl)-2-butanesulfonamide], the EC50 is 21 nM.
Turning to `COc1ncnc(OC)c1-n1c(NS(=O)(=O)[C@@H](C)[C@H](C)c2ncc(C)cn2)nnc1C1CCCCC1` [Example 5.0, (2S,3R)-N-(5-cyclohexyl-4-(4,6-dimethoxy-5-pyrimidinyl)-4H-1,2,4-triazol-3-yl)-3-(5-methyl-2-pyrimidinyl)-2-butanesulfonamide], the EC50 worked out at 9.4 nM.
Turning to `COc1ncnc(OC)c1-n1c(NS(=O)(=O)[C@@H](C)[C@H](OC)c2ncc(Cl)cn2)nnc1C1CCCCC1` [Example 6.0, (1R,2S)-1-(5-chloro-2-pyrimidinyl)-N-(5-cyclohexyl-4-(4,6-dimethoxy-5-pyrimidinyl)-4H-1,2,4-triazol-3-yl)-1-methoxy-2-propanesulfonamide], the EC50 stood at 7.5 nM.
On to `COc1ncnc(OC)c1-n1c(NS(=O)(=O)[C@@H](C)[C@H](OC)c2ncc(Cl)cn2)nnc1C1CCC1` [Example 7.0, (1R,2S)-1-(5-chloro-2-pyrimidinyl)-N-(5-cyclobutyl-4-(4,6-dimethoxy-5-pyrimidinyl)-4H-1,2,4-triazol-3-yl)-1-methoxy-2-propanesulfonamide], for which the EC50 was found to be 66 nM.
Still for that read-out and setting: for `COc1cccc(OC)c1-n1c(NS(=O)(=O)[C@@H](C)[C@H](C)c2ncc(C)cn2)nnc1C1CCCC1` [Example 17.0, (2S,3R)-N-(5-cyclopentyl-4-(2,6-dimethoxyphenyl)-4H-1,2,4-triazol-3-yl)-3-(5-methylpyrimidin-2-yl)butane-2-sulfonamide] the value was 1.1 nM; for `COc1ncnc(OC)c1-n1c(NS(=O)(=O)[C@@H](C)[C@H](C)c2ncc(C)cn2)nnc1C1CCCC1` [Example 18.0, (2S,3R)-N-(5-cyclopentyl-4-(4,6-dimethoxypyrimidin-5-yl)-4H-1,2,4-triazol-3-yl)-3-(5-methylpyrimidin-2-yl)butane-2-sulfonamide], 2.1 nM.
`COc1ncnc(OC)c1-n1c(NS(=O)(=O)[C@@H](C)[C@H](OC)c2ncc(Cl)cn2)nnc1C1CCCC1` [Example 19.0, (1R,2S)-1-(5-chloropyrimidin-2-yl)-N-(5-cyclopentyl-4-(4,6-dimethoxypyrimidin-5-yl)-4H-1,2,4-triazol-3-yl)-1-methoxypropane-2-sulfonamide]: the EC50 turned out to be 1.1 nM.
Still for that read-out and setting: in the case of `COc1ncnc(OC)c1-n1c(NS(=O)(=O)[C@@H](C)[C@H](OC)c2ncc(Cl)cn2)nnc1C1CC1` [Example 24.0, (1R,2S)-1-(5-chloropyrimidin-2-yl)-N-(5-cyclopropyl-4-(4,6-dimethoxypyrimidin-5-yl)-4H-1,2,4-triazol-3-yl)-1-methoxypropane-2-sulfonamide] it was 11 nM; in that of `COc1ncnc(OC)c1-n1c(NS(=O)(=O)[C@@H](C)[C@H](OC)c2cnc(C)cn2)nnc1C1CCC1` [Example 82.0, (1R,2S)-N-(5-cyclobutyl-4-(4,6-dimethoxy-5-pyrimidinyl)-4H-1,2,4-triazol-3-yl)-1-methoxy-1-(5-methyl-2-pyrazinyl)-2-propanesulfonamide], 50 nM; in that of `COc1ncnc(OC)c1-n1c(NS(=O)(=O)[C@@H](C)[C@@H](OC(C)C)c2ncc(C)cn2)nnc1C1CCC1` [Example 83.0, (1S,2S)-N-(5-cyclobutyl-4-(4,6-dimethoxy-5-pyrimidinyl)-4H-1,2,4-triazol-3-yl)-1-(5-methyl-2-pyrimidinyl)-1-(2-propanyloxy)-2-propanesulfonamide], 6 nM.
With `COc1ncnc(OC)c1-n1c(NS(=O)(=O)[C@@H](C)[C@H](C)c2ncc(F)cn2)nnc1C1CCC1` [Example 84.0, (2S,3R)-N-(5-cyclobutyl-4-(4,6-dimethoxy-5-pyrimidinyl)-4H-1,2,4-triazol-3-yl)-3-(5-fluoro-2-pyrimidinyl)-2-butanesulfonamide], the EC50 was 10.8 nM.
As to `COc1ncnc(OC)c1-n1c(NS(=O)(=O)[C@@H](C)[C@H](C)c2ncc(Cl)cn2)nnc1C1CCC1` [Example 85.0, (2S,3R)-3-(5-chloro-2-pyrimidinyl)-N-(5-cyclobutyl-4-(4,6-dimethoxy-5-pyrimidinyl)-4H-1,2,4-triazol-3-yl)-2-butanesulfonamide], the EC50 amounted to 1.7 nM.
As to `COc1ncnc(OC)c1-n1c(NS(=O)(=O)[C@@H](C)[C@@H](OC(C)C)c2cnc(C)cn2)nnc1C1CCC1` [Example 86.0, (1S,2S)-N-(5-cyclobutyl-4-(4,6-dimethoxy-5-pyrimidinyl)-4H-1,2,4-triazol-3-yl)-1-(5-methyl-2-pyrazinyl)-1-(2-propanyloxy)-2-propanesulfonamide], the EC50 was 36 nM.
As to `COc1ncnc(OC)c1-n1c(NS(=O)(=O)[C@@H](C)[C@H](C)c2ccc(Cl)cn2)nnc1C1CCC1` [Example 87.0, (2S,3R)-3-(5-chloro-2-pyridinyl)-N-(5-cyclobutyl-4-(4,6-dimethoxy-5-pyrimidinyl)-4H-1,2,4-triazol-3-yl)-2-butanesulfonamide], the EC50 amounted to 2 nM.
Turning to `COc1ncnc(OC)c1-n1c(NS(=O)(=O)[C@@H](C)[C@H](C)c2cnc(C)cn2)nnc1C1CCC1` [Example 88.0, (2S,3R)-N-(5-cyclobutyl-4-(4,6-dimethoxy-5-pyrimidinyl)-4H-1,2,4-triazol-3-yl)-3-(5-methyl-2-pyrazinyl)-2-butanesulfonamide], the EC50 is 42 nM.
For `COc1ncnc(OC)c1-n1c(NS(=O)(=O)[C@@H](C)[C@@H](OC(C)C)c2ncc(Cl)cn2)nnc1C1CCC1` [Example 89.0, (1S,2S)-1-(5-chloro-2-pyrimidinyl)-N-(5-cyclobutyl-4-(4,6-dimethoxy-5-pyrimidinyl)-4H-1,2,4-triazol-3-yl)-1-(2-propanyloxy)-2-propanesulfonamide], the concentration for a half-maximal effect (EC50) turned out to be 0.74 nM.
Take `COc1ncnc(OC)c1-n1c(NS(=O)(=O)[C@@H](C)[C@H](OC)c2ncc(C)cn2)nnc1C1CCC1` [Example 90.0, (1R,2S)-N-(5-cyclobutyl-4-(4,6-dimethoxypyrimidin-5-yl)-4H-1,2,4-triazol-3-yl)-1-methoxy-1-(5-methylpyrimidin-2-yl)propane-2-sulfonamide]: the EC50 was found to be 9.2 nM.
Still for that read-out and setting: in the case of `COc1cccc(OC)c1-n1c(NS(=O)(=O)[C@@H](C)[C@H](OC)c2ncc(Cl)cn2)nnc1C1CCC1` [Example 93.0, (1R,2S)-1-(5-chloropyrimidin-2-yl)-N-(5-cyclobutyl-4-(2,6-dimethoxyphenyl)-4H-1,2,4-triazol-3-yl)-1-methoxypropane-2-sulfonamide] it was 0.91 nM; in that of `CO[C@H](c1ncc(Cl)cn1)[C@H](C)S(=O)(=O)Nc1nnc(C2CCC2)n1-c1c(F)cccc1F` [Example 94.0, (1R,2S)-1-(5-chloropyrimidin-2-yl)-N-(5-cyclobutyl-4-(2,6-difluorophenyl)-4H-1,24-triazol-3-yl)-1-methoxypropane-2-sulfonamide], 0.72 nM; in that of `COCC(COC)n1c(NS(=O)(=O)[C@@H](C)[C@H](OC)c2ncc(Cl)cn2)nnc1C1CCC1` [Example 95.0, (1R,2S)-1-(5-chloropyrimidin-2-yl)-N-(5-cyclobutyl-4-(1,3-dimethoxypropan-2-yl)-4H-1,2,4-triazol-3-yl)-1-methoxypropane-2-sulfonamide], 43 nM.
For the compound `COCC1(n2c(NS(=O)(=O)[C@@H](C)[C@H](OC)c3ncc(Cl)cn3)nnc2C2CCC2)CC1` [Example 96.0], the EC50 is 30 nM.
`CO[C@H](c1ncc(Cl)cn1)[C@H](C)S(=O)(=O)Nc1nnc(C2CCC2)n1C1CCOCC1` [Example 97.0, (1R,2S)-1-(5-chloropyrimidin-2-yl)-N-(5-cyclobutyl-4-(tetrahydro-2H-pyran-4-yl)-4H-1,2,4-triazol-3-yl)-1-methoxypropane-2-sulfonamide]: the EC50 worked out at 370 nM.
For `C=C1CC(c2nnc(NS(=O)(=O)[C@@H](C)[C@H](OC)c3ncc(Cl)cn3)n2-c2c(OC)ncnc2OC)C1` [Example 118.0], the EC50 turned out to be 1 nM.
With `COc1cccc(OC)c1-n1c(NS(=O)(=O)[C@@H](C)[C@H](OC)c2ncc(Cl)cn2)nnc1C1CC(C)(C)C1` [Example 119.0], the EC50 amounted to 0.79 nM.
Still for that read-out and setting: in the case of `COc1ncnc(OC)c1-n1c(NS(=O)(=O)[C@@H](C)[C@H](OC)c2ncc(Cl)cn2)nnc1C1CC(C)(C)C1` [Example 120.0] it was 3.1 nM.

A word on the EC50: it is the concentration at which the effect is half-maximal.
